Holding throughout (format): in vivo
One assay relates to Plutella xylostella. Put plainly: Leaf dip method (cabbage leaves) against Plutella xylostella (Example C). As to conditions: single compound, 72 h. Here is the method:
The leaf dip method was used, wherein the required quantity of the compound or respective compound combinations were weighed and dissolved in a test solution prepared in tubes. The tubes were put on a vortex at 2000 rpm for 90 min for proper mixing and then the test solutions were diluted with 0.01% Triton-X to the desired test concentration. Cabbage leaves were dipped into the solution for 10 seconds, shade dried for 20 min and then transferred to single cells of bioassay trays. A single second instar larva was released into each cell and the tray was covered with a lid. The bio-assay trays were kept under laboratory conditions at a temperature of 25° C. and relative humidity of 70%. Observations on dead, moribund and live larvae were recorded 72 h after the release. Percent mortality was calculated by combining dead and moribund larvae and comparing the result with the one of the untreated control. The results are shown for compound of formula (I-III) in Table C.

The subject of the next assay is Helicoverpa armigera. Put plainly: Diet incorporation method against Helicoverpa armigera (Example A). As to conditions: single compound, 96 h. Here is the method: The diet incorporation method was used, in which semi-synthetic diet was incorporated into the test solutions consisting either of the single compounds or respective compound combinations, when the temperature was approximately 50° C. in the bio-assay containers, then stirred thoroughly for proper mixing and allowed to cool for 30 min. The solidified diet was cut into equal pieces, and then each piece was transferred into one cell of a bio-assay tray. A single starved third instar larva was released into each of these cells of the bio-assay trays and the tray was covered with a lid. The bio-assay trays were kept under laboratory conditions at a temperature of 25° C. and relative humidity of 70%. Observations on dead, moribund and live larvae were recorded 96 h after the release of the larvae. Percent mortality was calculated by combining dead and moribund larvae and comparing the result to the one of the untreated control. The results are shown for the compound of formula (I-III) in Table A.

The subject of another assay is Spodoptera litura. Description: Diet incorporation method against Spodoptera litura (Example B). As to conditions: single compound, 96 h. Here is the method:
The diet incorporation method was used, in which semi-synthetic diet was incorporated into the test solution consisting either of the single compound or respective compound combinations, when the temperature was approximately 50° C. in the bioassay containers, then stirred thoroughly for proper mixing and allowed to cool for 30 min. The solidified diet was cut into equal pieces, and then each piece was transferred into one cell of the bio-assay trays. A single starved third instar larva was released into each of these cells of the bio-assay trays and the tray was covered with a lid. The bio-assay trays were kept under laboratory conditions at a temperature of 25° C. and relative humidity of 70%. Observations on dead, moribund and live larvae were recorded 96 h after the release. Percent mortality was calculated by combining dead and moribund larvae and comparing the result with the one of the untreated control. The results are shown for the compound of formula (I-III) in Table B.

The subject of another assay is Alternaria solani. Put plainly: Preventive glasshouse test against Alternaria solani in tomato (Example G). As to conditions: single compound. Here is the method:
The single compounds or respective compound combinations were dissolved in 2% dimethyl sulfoxide/acetone and then mixed with water containing emulsifier to a calibrated spray volume of 50 mL. The test solutions were poured into spray bottles for further applications.
To test the preventive activity, healthy young tomato plants, raised in the greenhouse, were sprayed with the active compound preparation at the stated application rates inside the spray cabinets using hollow cone nozzles. One day after treatment, the plants were inoculated with a spore suspension containing 0.24×10^6 Alternaria solani inoculum and 2% Malt. The inoculated plants were then kept in a greenhouse chamber at a temperature of 22-24° C. and 90-95% relative humidity for disease expression.
A visual assessment of the performance of the single compounds or compound combinations was carried out by rating the disease severity (0-100% scale) on treated plants 3, 7, 10 and 15 days after application. Efficacy (% control) of the single compounds and mixtures was calculated by comparing the disease rating in the treatment with the one of the untreated control. The compounds were also assessed for their plant compatibility by recording symptoms like necrosis, chlorosis and stunting. The results have been described for the compound of formula (I-III) in Table G.

In a further assay the test system is Erysiphe cichoracearum. Description: Preventive glasshouse test against Erysiphe cichoracearum in cucumber (Example K). The settings on record: single compound, Conc. 100 ppm. Here is the method: The single compounds or the respective compound combinations were dissolved in 2% dimethyl sulfoxide/acetone and then mixed with water containing emulsifier to a calibrated spray volume of 50 mL. The test solutions were poured into spray bottles for further applications.
To test the preventive activity of compounds, healthy young cucumber plants, raised in the greenhouse, were sprayed with the active compound preparation at the stated application rates inside the spray cabinets using hollow cone nozzles. One day after treatment, the plants were inoculated with a conidial suspension containing 2×10^5 Erysiphe cichoracearum inoculum. The inoculated plants were then kept in a greenhouse chamber at a temperature of 22-24° C. and 50-60% relative humidity for disease expression.
A visual assessment of the performance of the compounds and the respective compound combinations was carried out by rating the disease severity (0-100% scale) on treated plants 3, 7, 10 and 15 days after application. Efficacy (% control) of the single compounds or compound combinations was calculated by comparing the disease rating in the treatment with the one of the untreated control. The compounds were also assessed for their plant compatibility by recording symptoms like necrosis, chlorosis and stunting. The results have been described for the compound of formula (I-III) in Table K.

The mark [1] stands for this setting: Spodoptera litura, 100 ppm, read-out: Observed Efficacy (%).
Where [2] appears, read: Spodoptera litura, read-out: Observed Efficacy (%).
[3] abbreviates: Helicoverpa armigera, 100 ppm, read-out: Observed Efficacy (%).

With `N#Cc1ccc(CC(=NNC(=O)Nc2ccc(OC(F)(F)F)cc2)c2cccc(C(F)(F)F)c2)cc1` (mixture of isomers) [Metaflumizone], the entries for the “Observed Efficacy (%)” value with Plutella xylostella (0.01 ppm) and in the assay on Plutella xylostella (0.1 ppm) were 25% and 0%, respectively.
Regarding `Cc1c(COC(=O)[C@@H]2[C@H](/C=C(\Cl)C(F)(F)F)C2(C)C)cccc1-c1ccccc1` (racemic) [Bifenthrin], the pest or weed control at 1 ppm with Helicoverpa armigera (Helicoverpa armigera, 1 ppm, read-out: Observed Efficacy (%)) is 0%. Moreover, the figures for the “Observed Efficacy (%)” value in the assay with Plutella xylostella (0.5 ppm) and in the assay on Plutella xylostella (1 ppm) were 12.5% and 25%, respectively.
For `C[C@]1(COC(=O)C2CC2)[C@@H]2C[C@H](O)[C@@]3(C)Oc4cc(-c5cccnc5)oc(=O)c4[C@H](O)[C@@H]3[C@@]2(C)CC[C@@H]1OC(=O)C1CC1` [Afidopyropen], the “Observed Efficacy (%)” value in the assay on Spodoptera litura (50 ppm), with Spodoptera litura (100 ppm) and in the assay with Plutella xylostella (0.1 ppm) was 0% each time.
Consider `CN(C(=O)c1ccccc1)c1cccc(C(=O)Nc2c(Br)cc(C(F)(C(F)(F)F)C(F)(F)F)cc2C(F)(F)F)c1F` [Broflanilide], for which the entries for the “Observed Efficacy (%)” value in the assay on Helicoverpa armigera (0.05 ppm), in the assay on Helicoverpa armigera (0.1 ppm) and in the assay with Spodoptera litura (0.05 ppm) were 0%, 12.5% and 0%, respectively.
Consider `CN/C(=N\[N+](=O)[O-])NCc1cnc(Cl)s1` [Clothianidin], for which, in the assay on Helicoverpa armigera (Helicoverpa armigera, 10 ppm, read-out: Observed Efficacy (%)), the pest or weed control at 10 ppm worked out at 12.5%. Further, the pest or weed control at 20 ppm with Helicoverpa armigera (Helicoverpa armigera, 20 ppm, read-out: Observed Efficacy (%)) is 25%; in the assay with Spodoptera litura (Spodoptera litura, 20 ppm, read-out: Observed Efficacy (%)), 0%.
On to `CCN(C(=O)c1cnn(C(C)C(C)C)c1C)c1ccnnc1` (stereo not drawn) [Dimpropyridaz], for which the “Observed Efficacy (%)” value with Spodoptera litura (100 ppm) is listed as 0%; in the assay on Plutella xylostella (0.1 ppm), 12.5%.
Consider `N#Cc1nn(-c2c(Cl)cc(C(F)(F)F)cc2Cl)c(N)c1[S+]([O-])C(F)(F)F` (stereo not drawn) [Fipronil], for which the “Observed Efficacy (%)” value with Plutella xylostella (0.001 ppm) is given as 0%.
Consider `CCc1nc2cc(C)c(Oc3ccc(OC(F)(F)F)cc3)cc2c(OC(=O)OC)c1C` [Flometoquin], for which the “Observed Efficacy (%)” value in the assay with Plutella xylostella (0.005 ppm) was determined as 12.5%.
`CON=CNC(=O)c1ccc(C2=NOC(c3cc(Cl)cc(Cl)c3)(C(F)(F)F)C2)cc1C` (stereo not drawn) [Fluxametamid]: the “Observed Efficacy (%)” value in the assay on Plutella xylostella (0.05 ppm) and in the assay with Plutella xylostella (0.1 ppm) was 0% each time.
With `O=[N+]([O-])NC1=NCCN1Cc1ccc(Cl)nc1` [Imidacloprid], the pest or weed control at 50 ppm in the assay with Helicoverpa armigera (Helicoverpa armigera, 50 ppm, read-out: Observed Efficacy (%)) came out at 0%. Further, the pest or weed control at 100 ppm with Spodoptera litura (setting [1]) came out at 0%. Further, the “Observed Efficacy (%)” value in the assay on Plutella xylostella (0.1 ppm) was determined as 0%.
On to `COC(=O)N(C(=O)N1CO[C@@]2(C(=O)OC)Cc3cc(Cl)ccc3C2=N1)c1ccc(OC(F)(F)F)cc1` [Indoxacarb], for which the “Observed Efficacy (%)” value in the assay on Helicoverpa armigera (0.1 ppm) and with Spodoptera litura (0.1 ppm) was 0% each time.
Regarding `CCN1OCC(NC(=O)c2ccc(C3=NOC(c4cc(Cl)c(F)c(Cl)c4)(C(F)(F)F)C3)cc2C)C1=O` (stereo not drawn) [Isocycloseram], the results for the “Observed Efficacy (%)” value in the assay on Spodoptera litura (10 ppm) and in the assay with Plutella xylostella (0.1 ppm) were 12.5% and 87.5%, respectively.
On to `COCC(=O)N(c1c(C)cccc1C)C(C)C(=O)OC` (stereo not drawn) [Metalaxyl], for which the pest or weed control at 200 ppm with Spodoptera litura (setting [2]) is 0%. In addition, the pest or weed control at 500 ppm in the assay on Spodoptera litura (setting [2]) came to 0%. Also, the “Observed Efficacy (%)” value in the assay with Alternaria solani (50 ppm) was 22%; in the assay with Alternaria solani (100 ppm) it was 22%; in the assay with Erysiphe cichoracearum, 31%.
As for `CCS(=O)(=O)c1cccnc1-c1nc2cc(S(=O)(=O)C(F)(F)F)ccc2o1` [Oxazosulfyl, 2-[3-(ethanesulfonyl)pyridin-2-yl]-5-[trifluoro(methanesulfonyl)]-1,3-benzoxazole], the pest or weed control at 100 ppm in the assay with Helicoverpa armigera (setting [3]) is 12.5%. Moreover, the “Observed Efficacy (%)” value with Plutella xylostella (0.1 ppm) is on record as 0%.
Turning to `CC1=NNC(=O)N(/N=C/c2cccnc2)C1` [Pymetrozine], the “Observed Efficacy (%)” value with Plutella xylostella (0.01 ppm) is given as 0%; with Plutella xylostella (0.05 ppm), 0%; in the assay with Plutella xylostella (1 ppm), 12.5%.
For the compound `CC(COc1ccc(Oc2ccccc2)cc1)Oc1ccccn1` (stereo not drawn) [Pyriproxyfen], the results for the “Observed Efficacy (%)” value with Plutella xylostella (0.05 ppm), in the assay on Plutella xylostella (0.1 ppm) and in the assay with Plutella xylostella (1 ppm) were 12.5%, 25% and 12.5%, respectively.
Turning to `CN1COCN(Cc2cnc(Cl)s2)/C1=N\[N+](=O)[O-]` [Thiamethoxam], the pest or weed control at 100 ppm with Helicoverpa armigera (setting [3]) came out at 25%; in the assay on Spodoptera litura (setting [1]) it was 0%. Further, the pest or weed control at 50 ppm with Spodoptera litura (Spodoptera litura, 50 ppm, read-out: Observed Efficacy (%)) turned out to be 0%. For the same compound, the “Observed Efficacy (%)” value in the assay on Plutella xylostella (1 ppm) came to 12.5%.
In the case of `COC(=O)NC(=S)Nc1ccccc1NC(=S)NC(=O)OC` [Thiophanate-methyl], the pest or weed control at 100 ppm in the assay on Helicoverpa armigera (setting [3]) and in the assay on Spodoptera litura (setting [1]) was 0% in each case. The pest or weed control at 200 ppm is 0% in the assay on Helicoverpa armigera (Helicoverpa armigera, 200 ppm, read-out: Observed Efficacy (%)) and 0% in the assay with Spodoptera litura (setting [2]). In addition, the pest or weed control at 500 ppm with Helicoverpa armigera (Helicoverpa armigera, 500 ppm, read-out: Observed Efficacy (%)) was determined as 0%; in the assay with Spodoptera litura (setting [2]) it was 0%. Besides, the “Observed Efficacy (%)” value in the assay on Alternaria solani (10 ppm) and with Alternaria solani (50 ppm) was 36% in each case.
Regarding `O=c1c(-c2cccc(C(F)(F)F)c2)c([O-])[n+](Cc2cncnc2)c2ccccn12` [Triflumezopyrim], the “Observed Efficacy (%)” value is 12.5% with Helicoverpa armigera (50 ppm), 0% with Helicoverpa armigera (100 ppm) and 25% in the assay on Spodoptera litura (50 ppm).
For the compound `CCN(C(=O)CCSCCC(F)(F)F)c1cn(-c2cccnc2)nc1Cl` [Tyclopyrazoflor], the “Observed Efficacy (%)” value with Spodoptera litura (100 ppm) and with Plutella xylostella (0.1 ppm) was 0% in each case.
In the case of Abamectin, the “Observed Efficacy (%)” value in the assay with Plutella xylostella (0.001 ppm) is reported as 12.5%; in the assay with Plutella xylostella (0.005 ppm), 25%.
As for Emamectin benzoate, the “Observed Efficacy (%)” value was determined as 12.5% with Helicoverpa armigera (0.1 ppm), 12.5% in the assay with Spodoptera litura (0.05 ppm) and 25% in the assay on Spodoptera litura (0.1 ppm).
Consider Spinetoram, for which the “Observed Efficacy (%)” value with Helicoverpa armigera (0.5 ppm) is recorded as 25%; in the assay with Plutella xylostella (0.05 ppm) it was 62.5%.
On to Spinosad, for which the “Observed Efficacy (%)” value in the assay on Helicoverpa armigera (0.2 ppm) was 12.5%; in the assay with Spodoptera litura (0.2 ppm), 0%.

For the origin of these results see US20230276804A1, “A PESTICIDALLY ACTIVE MIXTURE COMPRISING PYRAZOLOPYRIDINE ANTHRANILAMIDE COMPOUND, OXIDES OR SALTS THEREOF” (priority 2020, published 2023).
